Measurements published in the supplement of paper PMC13380429.
± gives the standard deviation of the averaged measurements.

Columns and labels:
Conditions in all cases: 72 h
U2OS [1] = assay: cell viability relative to DMSO; higher = less toxic
Vero E6 [2] = assay: as above
Calu-3 [3] = assay: as above
Caco-2 [4] = assay: as above
HepG2 [5] = assay: as above
U2OS [6] = assay: drug sensitivity score (DSS) for viability; higher = more toxic; extreme values may be limits of the assay
Vero E6 [7] = assay: as above
Calu-3 [8] = assay: as above
Caco-2 [9] = assay: as above
HepG2 [10] = assay: as above
U2OS [11] = assay: relative viability EC50 (midpoint between 100% and the lowest measured viability); higher = less toxic
Vero E6 [12] = assay: as above
Calu-3 [13] = assay: as above
Caco-2 [14] = assay: as above
HepG2 [15] = assay: as above

Row | SMILES | cell viability (U2OS [1]; 1 nM) | cell viability (U2OS [1]; 10 nM) | cell viability (U2OS [1]; 100 nM) | cell viability (U2OS [1]; 1000 nM) | cell viability (U2OS [1]; 10000 nM) | cell viability (Vero E6 [2]; 1 nM) | cell viability (Vero E6 [2]; 10 nM) | cell viability (Vero E6 [2]; 100 nM) | cell viability (Vero E6 [2]; 1000 nM) | cell viability (Vero E6 [2]; 10000 nM) | cell viability (Calu-3 [3]; 1 nM) | cell viability (Calu-3 [3]; 10 nM) | cell viability (Calu-3 [3]; 100 nM) | cell viability (Calu-3 [3]; 1000 nM) | cell viability (Calu-3 [3]; 10000 nM) | cell viability (Caco-2 [4]; 1 nM) | cell viability (Caco-2 [4]; 10 nM) | cell viability (Caco-2 [4]; 100 nM) | cell viability (Caco-2 [4]; 1000 nM) | cell viability (Caco-2 [4]; 10000 nM) | cell viability (HepG2 [5]; 1 nM) | cell viability (HepG2 [5]; 10 nM) | cell viability (HepG2 [5]; 100 nM) | cell viability (HepG2 [5]; 1000 nM) | cell viability (HepG2 [5]; 10000 nM) | drug sensitivity score (U2OS [6]) | drug sensitivity score (Vero E6 [7]) | drug sensitivity score (Calu-3 [8]) | drug sensitivity score (Caco-2 [9]) | drug sensitivity score (HepG2 [10]) | relative viability EC50 (U2OS [11]) | relative viability EC50 (Vero E6 [12]) | relative viability EC50 (Calu-3 [13]) | relative viability EC50 (Caco-2 [14]) | relative viability EC50 (HepG2 [15])
1 | COc1ccc(C(=O)Nc2c(Cl)cncc2Cl)cc1OC1CCCC1 [piclamilast] | 98.2% | 95.7% | 103% | 98.3% | 94.8% | 98.3% | 95% | 92.4% | 91.4% | 82% | 97.5% | 89.4% | 102% | 99.9% | 87.5% | 96.6% | 97.3% | 102% | 107% | 98% | 90.4% | 86% | 92.7% | 102% | 101% | 0 | 0.8 | 0 | 0 | 0 | > 10 µM | > 10 µM | > 10 µM | > 10 µM | > 10 µM
2 | CN1CCC(=C2c3ccccc3Sc3ccccc32)CC1 [pimethixene] | 103% | 97.8% | 102% | 99% | 95.5% | 103% | 101% | 106% | 105% | 98.4% | 103% | 105% | 100% | 100% | 101% | 100% | 89.7% | 96.9% | 101% | 102% | 108% | 98.9% | 121% | 84.7% | 92.1% | 0 | 0 | 0 | 0 | 1.2 | > 10 µM | > 10 µM | > 10 µM | > 10 µM | > 10 µM
3 | CC[N+]1(C)CCCC(OC(=O)C(O)(c2ccccc2)c2ccccc2)C1 (stereo not given) [pipenzolate] | 100% | 95% | 95.4% | 93.3% | 97.4% | 105% | 101% | 105% | 103% | 96.7% | 96.3% | 95.5% | 93.3% | 94.6% | 91.8% | 102% | 100% | 103% | 95.2% | 95.7% | 89.3% | 102% | 97.7% | 99.8% | 94.3% | 0 | 0 | 0 | 0 | 0 | > 10 µM | > 10 µM | > 10 µM | > 10 µM | > 10 µM
4 | Clc1ccc(CCCOCCCN2CCCCC2)cc1 [pitolisant] | 104% | 99.7% | 100% | 97.7% | 96.8% | 95% | 94.9% | 95.6% | 93.2% | 89.4% | 90.7% | 106% | 92.3% | 90.6% | 94.8% | 99.4% | 93.6% | 96.4% | 89.7% | 89.8% | 93.8% | 91.4% | 96% | 94.6% | 81.8% | 0 | 0 | 0 | 0 | 0.3 | > 10 µM | > 10 µM | > 10 µM | > 10 µM | > 10 µM
5 | C[C@]12C=CC(=O)C=C1CC[C@@H]1[C@@H]2[C@@H](O)C[C@@]2(C)[C@H]1CC[C@]2(O)C(=O)COC(=O)CCC(=O)O [prednisolone-hemisuccinate] | 97.5% | 103% | 96% | 100% | 93.6% | 99.3% | 99.9% | 95.8% | 90% | 98.6% | 98.6% | 102% | 97.2% | 102% | 88.9% | 94.7% | 103% | 93.3% | 91.3% | 79.8% | 112% | 92.5% | 91.7% | 98.5% | 108% | 0 | 0 | 0 | 1.1 | 0 | > 10 µM | > 10 µM | > 10 µM | > 10 µM | > 10 µM
6 | Oc1cc(O)c2c(c1)O[C@H](c1ccc(O)c(O)c1)[C@H](O)[C@H]2c1c(O)cc(O)c2c1O[C@H](c1ccc(O)c(O)c1)[C@H](O)C2 [procyanidin-B-2] | 103% | 99.9% | 106% | 99.5% | 104% | 97% | 98.2% | 91.8% | 101% | 93.4% | 112% | 95.6% | 100% | 93.1% | 109% | 106% | 102% | 102% | 98.7% | 105% | 98.5% | 100% | 96.8% | 99.3% | 94.7% | 0 | 0 | 0 | 0 | 0 | > 10 µM | > 10 µM | > 10 µM | > 10 µM | > 10 µM
7 | CC(C)NCC(O)COc1cccc2ccccc12 (stereo not given) [propranolol] | 96.1 ± 3.6% | 95.2 ± 2.7% | 97.2 ± 7.5% | 95.6 ± 2.3% | 96.5 ± 7.6% | 94.3 ± 3.7% | 98.95 ± 0.49% | 95.3 ± 4% | 95.1 ± 0.71% | 99.3 ± 3.2% | 95.3 ± 3.9% | 96.7 ± 2.8% | 99.4 ± 6% | 89.6 ± 5% | 92.9 ± 1.8% | 101 ± 2.7% | 96 ± 3.8% | 101 ± 3% | 95 ± 9.6% | 100 ± 4.5% | 92.9 ± 6.3% | 101 ± 2.8% | 95.6 ± 7% | 102 ± 6% | 102 ± 1.6% | 0.0333 ± 0.058 | 0 | 0.467 ± 0.81 | 0 | 0 | > 10 µM | > 10 µM | > 10 µM | > 10 µM | > 10 µM
